According to patent publication US9261497B2, “Method of treating cancer with modulators of SCFSkp2” (New York University, priority 2012, dated 2016):

Key:
CyclinE/CDK2 = target: T1, CyclinE/CDK2 (Homo sapiens, UniProt P24941); assay: CyclinE/CDK2 kinase assay (phospho-T187 p27); assay type: biochemical; conditions: 50 μM inhibitor
T1 construct: purchased Sigma-Aldrich
Method: (§1) In vitro ubiquitylation assays were incubated with anti-HA affinity matrix (Roche) in IP buffer (50 mM Tris pH 7.6, 150 mM NaCl, 0.1% NP40, and Roche Complete EDTA-free protease tablet) for 16 h at 4° C. Beads were washed 3× with IP buffer and eluted with 2×SDS Sample Buffer (Boston Bioproducts) and 10% Beta-mercaptoethanol. For binding without ubiquitylation, HA-Skp2 IVT (10 μl) and Cks1 IVT (10 μl) were preincubated with anti-HA affinity matrix in IP buffer for 2 hours, with the addition of p27 kinase reaction (10 μl) for another 16 h incubation at 4° C. All reactions were analyzed after SDS/PAGE by western blotting. Where indicated, Skp2 and Cks1 were pretreated with 10 μM inhibitors for 30 minutes. Kinase reactions were performed with p27 IVT (10 μl) and 0.5 μg/ul CyclinE/CDK2 in kinase buffer (50 mM Tris HCL pH 7.5, 10 mM MgCl2, 2 mM ATP, 2.5 μM Okadaic Acid, and 0.6 mM DTT) at 30° C. for 1 h.

[1] = tested on: p27 in 501 Mel, SK-MEL-147, and SK-MEL-173; assay: Immunoblot of steady state protein levels in metastatic melanoma cell lines; assay type: cell-based, human; conditions: 10 μM inhibitor; melanoma cells
Method: 501 Mel cells were also treated with MG-132 (a proteasome inhibitor) to confirm that p27 and p21 induction were responsive to known UPS inhibitors (FIG. 4A, right). […] Thus, treatment of cells with inhibitors targeting the Skp2-Cks1 interface induces protein levels of specific Skp2-Cks1 substrates.
Whole cell extracts were prepared and immunoblotted as previously described Dorrello et al., “S6K1- and betaTRCP-mediated Degradation of PDCD4 Promotes Protein Translation and Cell Growth,” Science 314:467-471 (2006), which is hereby incorporated by reference in its entirety. For knockdown of Skp2 or p27, shRNAs were induced with 2 ng/ml doxycycline for 48 hours, with the last 16 hours co-treated with 0.1% Vehicle or 10 μM inhibitors as indicated. For cycloheximide chase, cells were pretreated 16 h with 0.1% Vehicle or 10 μM inhibitors, followed by 20 ng/ml cycloheximide (Sigma) and whole cell extracts collected for each time point. Scanning densitometry was performed on immunoblots using Image J software. For cell cycle analysis, cells were treated with 0.1% Vehicle or 10 μM inhibitors for 16 h. 1×10^6 cells were fixed in 70% ethanol for 2 h, treated with 200 μg/ml RNase A (Invitrogen) for 30 minutes, and stained with 20 μg/ml Propidium Iodine (Sigma). All samples were assayed in triplicates. Signal was detected using the Becton Dickson LSRII flow cytometer and cell cycle profiles were analyzed with FloJo.

Skp2-p27 interaction = target: T2, Skp2-p27 interaction (Homo sapiens, UniProt P61024+Q13309); assay: p27 binding to HA-Skp2 (HA-immunoprecipitation); conditions: for p27 binding to Skp2: 10 μM, HA-Skp2 and Cks1 pretreated before p27-pT187, without ubiquitylation
T2 construct: made in house; host or cells: cell-free: rabbit reticulocyte lysate (TNT T7 Coupled Reticulocyte Lysate System, Promega) from pcDNA3.1 plasmids
Method: as §1

T47D = assay: Cell cycle FACS analysis, T47D; assay type: cell-based, human
Method: Whole cell extracts were prepared and immunoblotted as previously described Dorrello et al., “S6K1- and betaTRCP-mediated Degradation of PDCD4 Promotes Protein Translation and Cell Growth,” Science 314:467-471 (2006), which is hereby incorporated by reference in its entirety. For knockdown of Skp2 or p27, shRNAs were induced with 2 ng/ml doxycycline for 48 hours, with the last 16 hours co-treated with 0.1% Vehicle or 10 μM inhibitors as indicated. For cycloheximide chase, cells were pretreated 16 h with 0.1% Vehicle or 10 μM inhibitors, followed by 20 ng/ml cycloheximide (Sigma) and whole cell extracts collected for each time point. 20 ng/ml cycloheximide (Sigma) was added to each plate and whole cell extract was collected for each time point. Scanning densitometry was performed on immunoblots using Image J software. […] 1×10^6 cells were fixed in 70% ethanol for 2 h, treated with 200 μg/ml RNase A (Invitrogen) for 30 minutes, and stained with 20 μg/ml Propidium Iodine (Sigma). All samples were assayed in triplicates. Signal was detected using the Becton Dickson LSRII flow cytometer and cell cycle profiles were analyzed with FloJo.

p27 in ECC-1 cells = assay: p27 immunoblot in ECC-1 cells (whole cell lysates, nuclear and cytoplasmic fractions); conditions: ECC-1; for p27 increase over control at optimal concentration: 10 μM (FIG. 11B); for Nuclear p27 increase over the control in presence of E2: 10 μM compound plus 1 nM E2; for Nuclear p27 increase over the control in presence of E2 / Decrease of cytoplasmic p27 levels: 18 h (FIG. 14C); for p27 protein levels over Vehicle control: 10 μM for 18 h, whole cell lysates (FIG. 11A); for Decrease of cytoplasmic p27 levels: 10 μM; for Increase of nuclear p27 compared to Vehicle control: nuclear fraction (FIG. 11C)
Method: The endometrial carcinoma cell line (derived from a well-differentiated endometrioid Type I ECA) ECC-1 cells (ATCC, Manassas, Va.) were plated at a density of 3×10^5/well/6-well plate and grown in DMEM:F12 supplemented with 10% FBS (BioWest, Ocala, Fla.). The cell line was passaged in the laboratory for fewer than 6 months after receipt. […] ECAs were plated at a density of 2.2×10^6 cells/6-well Primaria® plates (BD Biosciences, San Jose, Calif.) in McCoys 5A media without phenol red containing 10% charcoal-stripped FBS, 2 mM L-Glutamine (Invitrogen) and antimycotic antibiotic solution (Mediatech, Hendon, Va.).
For subcellular fractionation, following treatments, cells were separated into nuclear and cytoplasmic fractions using the NE-PER kit (Thermo Scientific), and 10 μg cytoplasmic and nuclear protein fractions were loaded onto SDS-PAGE for immunoblotting. […] The membranes were incubated with peroxidase-conjugated goat anti-rabbit or goat anti-mouse secondary antibodies in TBST (1:2000; Thermo Scientific). […] Protein bands were resolved using the SuperSignal West Dura kit (Thermo Scientific), visualized by exposure to X-ray film (HyBlot; Denville Scientific, Denville, N.J.), and following densitometric scanning (Kodak Logic-100), the protein bands were quantified by normalizing to β-actin and compared to the untreated control, and the values represented by the graphs of relative protein levels compared to actin in each well and shown as % of Vehicle control.

T2 sequence (Q13309 whole entry): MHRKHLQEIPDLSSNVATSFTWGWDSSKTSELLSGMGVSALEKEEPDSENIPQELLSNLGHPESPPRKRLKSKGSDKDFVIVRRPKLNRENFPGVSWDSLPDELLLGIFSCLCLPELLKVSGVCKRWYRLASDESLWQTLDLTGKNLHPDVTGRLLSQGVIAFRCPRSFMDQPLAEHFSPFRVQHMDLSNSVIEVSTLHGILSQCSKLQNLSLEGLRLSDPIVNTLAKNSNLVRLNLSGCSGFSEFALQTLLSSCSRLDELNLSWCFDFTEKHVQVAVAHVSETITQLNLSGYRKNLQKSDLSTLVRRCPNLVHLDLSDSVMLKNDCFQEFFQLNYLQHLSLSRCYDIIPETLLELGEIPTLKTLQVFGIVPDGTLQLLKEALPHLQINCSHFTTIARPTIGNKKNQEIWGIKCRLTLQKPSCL
T2 sequence (P61024 whole entry): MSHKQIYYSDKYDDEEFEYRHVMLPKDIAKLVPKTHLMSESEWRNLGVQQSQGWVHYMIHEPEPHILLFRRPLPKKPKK
T2 sequence (P63208 whole entry partner): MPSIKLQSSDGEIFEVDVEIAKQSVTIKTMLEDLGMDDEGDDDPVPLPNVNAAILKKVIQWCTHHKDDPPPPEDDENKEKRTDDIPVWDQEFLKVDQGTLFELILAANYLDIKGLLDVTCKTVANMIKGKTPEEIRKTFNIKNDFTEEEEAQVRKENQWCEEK
T2 sequence (Q13616 whole entry partner): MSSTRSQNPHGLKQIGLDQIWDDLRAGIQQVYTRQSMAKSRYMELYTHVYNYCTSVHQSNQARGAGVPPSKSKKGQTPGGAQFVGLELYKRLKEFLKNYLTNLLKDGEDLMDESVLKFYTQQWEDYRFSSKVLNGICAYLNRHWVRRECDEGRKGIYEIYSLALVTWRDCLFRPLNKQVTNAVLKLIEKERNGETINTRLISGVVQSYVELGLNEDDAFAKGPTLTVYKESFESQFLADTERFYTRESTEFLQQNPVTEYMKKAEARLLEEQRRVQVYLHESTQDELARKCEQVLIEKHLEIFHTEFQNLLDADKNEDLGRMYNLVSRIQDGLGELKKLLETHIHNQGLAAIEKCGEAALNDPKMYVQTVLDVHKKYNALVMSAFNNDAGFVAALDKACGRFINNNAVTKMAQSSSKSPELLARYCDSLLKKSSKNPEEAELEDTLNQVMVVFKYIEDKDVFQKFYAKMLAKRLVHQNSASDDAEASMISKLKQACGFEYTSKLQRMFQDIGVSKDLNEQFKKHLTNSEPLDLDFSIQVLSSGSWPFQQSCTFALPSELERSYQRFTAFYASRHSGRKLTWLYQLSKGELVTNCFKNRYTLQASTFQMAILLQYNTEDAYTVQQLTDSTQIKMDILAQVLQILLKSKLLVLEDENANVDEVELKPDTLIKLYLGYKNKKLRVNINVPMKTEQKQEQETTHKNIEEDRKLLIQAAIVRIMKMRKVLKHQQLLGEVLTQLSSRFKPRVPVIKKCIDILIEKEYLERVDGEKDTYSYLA
T2 sequence (P62877 whole entry partner): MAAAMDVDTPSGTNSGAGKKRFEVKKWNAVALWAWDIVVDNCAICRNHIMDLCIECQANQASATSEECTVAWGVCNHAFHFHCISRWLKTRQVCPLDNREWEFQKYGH

Structure (SMILES) | CyclinE/CDK2 activity (phospho-T187 p27) (CyclinE/CDK2) | p27 protein induction [1] | p27 binding to Skp2 (Skp2-p27 interaction) | Amount of p27 interacting with Skp2 (Skp2-p27 interaction; 50 μM, HA-immunoprecipitates of ubiquitylation assays) | G1 phase (T47D; 5 μM for 16 hours) | S phase (T47D; 5 μM for 16 hours) | Levels of Skp2 (p27 in ECC-1 cells) | p27 increase over control at optimal concentration (p27 in ECC-1 cells) | Nuclear p27 increase over the control in presence of E2 (p27 in ECC-1 cells) [fold] | p27 protein levels over Vehicle control (p27 in ECC-1 cells) | Decrease of cytoplasmic p27 levels (p27 in ECC-1 cells) | Increase of nuclear p27 compared to Vehicle control (p27 in ECC-1 cells; 18 h) [fold] | Concentration inducing p27 to the same level as the proteasome inhibitor (p27 in ECC-1 cells; 24 hours, compared to 1 μM Lactacystin) [µM] | Cytoplasm p27, time course (p27 in ECC-1 cells; by 18 h (FIG. 15A)) | Nuclear p27, time course (p27 in ECC-1 cells; by 18 h (FIG. 15A)) | Cellular phenotype (T47D) | Increase of cytoplasm p27 (p27 in ECC-1 cells; 18 h, cytoplasmic fraction (FIG. 11C)) [fold]
O=C(O)COc1ccc(Br)cc1C=C1SC(=S)N(Cc2cccnc2)C1=O [Compound C1] | not blocked | induce p27 protein | reduce p27 binding to Skp2 | reduced the amount of p27 | an increase in G1 phase | a decrease in S phase | – | – | – | – | – | – | – | – | – | – | –
COC(=O)C1=C(C)N(c2ccc(Br)cc2)C(=O)C1=Cc1ccccc1O [Compound C2] | not blocked | induce p27 protein | reduce p27 binding to Skp2 | – | – | – | do not effect the levels of Skp2 | 2.3 | ~2 | increase p27 protein levels | approximately 33% | 1.8 | ≤ 0.1 | half | doubled | no significant cellular phenotype | –
O=C(O)COc1ccc(C=C2SC(=O)N(CC(=O)c3ccc(Cl)cc3)C2=O)cc1 [Compound C16] | not blocked | induce p27 protein | reduce p27 binding to Skp2 | – | – | – | – | – | – | increase p27 protein levels | – | 2.2 | – | – | – | no significant cellular phenotype | 2.7
O=C(NN=Cc1cc(Br)cc(Br)c1O)C(=Cc1ccccc1O)NC(=O)c1ccccc1 [Compound C20] | not blocked | induce p27 protein | reduce p27 binding to Skp2 | – | – | – | do not effect the levels of Skp2 | 2.2 | ~2 | increase p27 protein levels | approximately 33% | 2.2 | – | – | – | no significant cellular phenotype | –
